Reference: patent publication US4732980A, “Intermediates for 3-amino-1,2,5-thiadiazole-1-oxides” (Smith Kline & French Laboratories Limited, priority 1985, dated 1988)

How the values were obtained:
histamine H2-receptors [1] = molecular target: T1, histamine H2-receptors (Cavia porcellus, UniProt P47747); assay: standard guinea pig atrium test (inhibition of histamine-induced tachycardia in the isolated guinea pig right atrium); assay type: cell-based; conditions: for Kb: isolated guinea pig right atrium, read-out: pA2 (guinea-pig atrium) (converted); for slope of response (figure in brackets with pA2, guinea-pig atrium): slope belonging to pA2, guinea-pig atrium
T1 construct: from tissue; host or cells: isolated guinea pig right atrium
T1 sequence (P47747 whole entry): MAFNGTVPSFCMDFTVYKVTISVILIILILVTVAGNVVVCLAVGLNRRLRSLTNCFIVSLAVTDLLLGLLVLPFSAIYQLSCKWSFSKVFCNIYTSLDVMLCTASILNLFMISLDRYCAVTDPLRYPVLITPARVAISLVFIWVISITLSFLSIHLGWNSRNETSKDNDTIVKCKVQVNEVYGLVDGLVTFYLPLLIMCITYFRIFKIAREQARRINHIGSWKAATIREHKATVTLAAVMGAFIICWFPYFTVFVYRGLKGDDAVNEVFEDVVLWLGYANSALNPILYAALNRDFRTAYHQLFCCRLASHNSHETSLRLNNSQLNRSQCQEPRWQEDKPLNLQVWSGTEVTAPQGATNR
Excerpt: (§1) The measurement of inhibition of histamine-stimulated secretion of gastric acid from the lumen-perfused stomachs of rats anaesthetised with urethane, and the measurement of inhibition of histamine-induced tachycardia in the isolated guinea pig right atrium, are detailed in U.S. Pat. No. 4,385,058.
(§2) To illustrate the level of activity of these compounds the following data were obtained in the standard guinea pig atrium test and the standard lumen-perfused rat test (for example see EP No. -A-49173).

histamine H2-receptors [2] = molecular target: T2, histamine H2-receptors (Rattus norvegicus, UniProt P25102); assay: standard lumen-perfused rat test (inhibition of histamine-stimulated secretion of gastric acid from the lumen-perfused stomachs of rats anaesthetised with urethane); assay type: in vivo
T2 construct: secretion of gastric acid from the lumen-perfused stomachs of rats anaesthetised with urethane; from tissue; host or cells: stomach of urethane-anaesthetised rats (in vivo, lumen-perfused)
T2 sequence (P25102 whole entry, the tested form may be a part): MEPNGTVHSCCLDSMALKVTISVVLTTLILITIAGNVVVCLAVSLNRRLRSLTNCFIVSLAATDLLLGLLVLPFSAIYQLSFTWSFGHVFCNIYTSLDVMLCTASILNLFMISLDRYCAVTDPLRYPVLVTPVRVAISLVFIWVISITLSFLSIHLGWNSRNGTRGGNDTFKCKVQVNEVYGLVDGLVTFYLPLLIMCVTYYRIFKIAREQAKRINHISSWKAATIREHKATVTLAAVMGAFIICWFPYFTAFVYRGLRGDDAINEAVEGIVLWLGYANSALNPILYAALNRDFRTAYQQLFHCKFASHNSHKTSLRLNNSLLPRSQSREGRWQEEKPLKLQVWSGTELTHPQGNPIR
Excerpt: These are actions of histamine which, according to Ash and Schild, Brit. J. Pharmac. Chemother. 27 247 (1966), are not mediated by histamine H1 -receptors.
as §1, §2

Structure (SMILES)	Kb (histamine H2-receptors [1])	slope of response (figure in brackets with pA2, guinea-pig atrium) (histamine H2-receptors [1])	ED50 (histamine H2-receptors [2])
CN(C)CC#CCCCNC1=NS(=O)(=O)N=C1N [Example 4, 3-Amino-4-[6-dimethylaminohex-4-ynylamino]-1,2,5-thiadiazole-1,1-dioxide]	0.1 µM	0.88	0.027 mg/kg
Nc1n[s+]([O-])nc1NCCCCC#CCN1CCCCC1 (stereo not drawn) [Example 1, 3-Amino-4-[7-piperidinohept-5-ynylamino]-1,2,5-thiadiazole-1-oxide]	3.02 µM	0.95	1.1 mg/kg
CN(C)CC#CCCCCNc1n[s+]([O-])nc1N (stereo not drawn) [Example 2, 3-Amino-4-[7-dimethylaminohept-5-ynylamino]-1,2,5--thiadiazole-1-oxide]	0.646 µM	0.61	0.16 mg/kg
CN(C)CC#CCCCCNC1=NS(=O)(=O)N=C1N [Example 3, 3-Amino-4-[7-dimethylaminohept-5-ynylamino]-1,2,5-thiadiazole-1,1-dioxide]	0.151 µM	0.50	0.1 mg/kg
